Experimental findings from patent publication US20110136766A1, “AURORA KINASE INHIBITORS” (Vitae Pharmaceuticals, Inc., priority 2008, published 2011) are described below.

The IC50 is the concentration at which inhibition is half-maximal.

One test relates to MV-411. The experiment in a line: CellTiter-Glo cell viability assay, MV-411. Conditions: Homo sapiens, read-out: MV-411 IC50. The format is cell-based. An excerpt:
(§1) The CellTiter-Glo® Luminescent Cell Viability Assay is a homogeneous method of determining the number of viable cells in culture based on quantitation of the ATP present, which signals the presence of metabolically active cells. The homogeneous assay procedure involves addition of a single reagent directly to cells cultured in serum-supplemented medium. The homogeneous format results in cell lysis and generation of a luminescent signal proportional to the amount of ATP present. The CellTiter-Glo® Assay relies on the properties of a proprietary thermostable luciferase (Ultra-Glo. Recombinant Luciferase), which generates a stable glow-type Luminescent signal. The half-life of the luminescent signal resulting from this reaction is greater than five hours. This extended half-life eliminates the need for reagent injectors and provides flexibility for continuous or batch-mode processing of multiple plates. The unique homogeneous format reduces pipetting errors that may be introduced during the multiple steps required by other ATP-measurement methods.
(§2) 96 Well cell culture plates were seeded with 10^3 mammalian cells (Colo205, HL-60, SW620, HCT116, MCF-7 and MV-411) in 100 μl culture medium. The cells were incubated overnight prior to initiating the assay. Control wells were prepared on a plate containing medium only to obtain a value for background luminescence.
(§3) Compounds to be tested were added to experimental wells and incubated for 72 hrs (Colo205, HL-60, MV-411), 168 hrs (HCT116, SW620) or 240 hrs (MCF-7). Wells were also set up to as vehicle controls with the addition of 0.1% DMSO. At the end of the incubation period, the plates were equilibrated to room temperature for approximately 30 minutes.
(§4) Lyophilized CellTiter-Glo® Substrate and the CellTiter-Glo® Buffer were warmed to room temperature. The CellTiter-Glo® Buffer was mixed with the CellTiter-Glo® Substrate to reconstitute the lyophilized enzyme/substrate mixture. This forms the CellTiter-Glo® Reagent. The contents were mixed by gently vortexing, swirling or by inverting the contents to obtain a homogeneous solution. 100 μl of CellTiter-Glo® Reagent was added to the cell culture medium present in each well. The contents were mixed for 2 minutes on an orbital shaker to induce cell lysis. The plates were allowed to incubate at room temperature for 10 minutes to stabilize luminescent signal. The contents of the 96 well cell culture plate were then transferred to a white 96 well Optiplate (Perkin Elmer). The luminescence was recorded on Wallac 1420 VICTOR^2 V Multilabel Platereader (An integration time of 0.25-1 second per well).
(§5) 10 mM DMSO stock Compounds were serially diluted threefold in DMSO. Subsequent dilutions made into cell culture media prior to addition to cells to maintain the DMSO concentration at or below 0.1% to avoid cell toxicity.
(§6) The IC50s in Table 2 are the concentration at which 50% growth inhibition relative to control occurs.

Another test has as its system Colo205. The experiment in a line: CellTiter-Glo cell viability assay, Colo205. Conditions: Homo sapiens, read-out: Colo205 IC50. The format is cell-based.
Source text: as §1, §2, §3, §4, §5, §6
Background: In ATP-based viability assays light output follows the ATP content of the culture.

The next test concerns HCT116. Nature of the test: CellTiter-Glo cell viability assay, HCT116. Conditions: Homo sapiens, read-out: HCT116 IC50. The format is cell-based.
Source text: as §1, §2, §3, §4, §5, §6

Another test deals with MCF-7. Nature of the test: CellTiter-Glo cell viability assay, MCF-7. The format is cell-based. Particulars: Homo sapiens, read-out: MCF-7 IC50.
Source text: as §1, §2, §3, §4, §5, §6

Another test deals with HL-60. The experiment in a line: CellTiter-Glo cell viability assay, HL-60. It is filed as cell-based. Conditions: Homo sapiens, read-out: HL-60 IC50.
Source text: as §1, §2, §3, §4, §5, §6

Another test deals with SW620. Nature of the test: CellTiter-Glo cell viability assay, SW620. It is filed as cell-based. Conditions: Homo sapiens, read-out: SW620 IC50.
Source text: as §1, §2, §3, §4, §5, §6

The target in test [1] is T1, full-length human Aurora B/INCENP complex (Homo sapiens, UniProt Q96GD4).
T1 construct: the full-length human Aurora B (N-terminal GST fusion); GST (N); purchased Carna BioSciences, Japan
T1 sequence (Q96GD4 whole entry, the tested form may be a part): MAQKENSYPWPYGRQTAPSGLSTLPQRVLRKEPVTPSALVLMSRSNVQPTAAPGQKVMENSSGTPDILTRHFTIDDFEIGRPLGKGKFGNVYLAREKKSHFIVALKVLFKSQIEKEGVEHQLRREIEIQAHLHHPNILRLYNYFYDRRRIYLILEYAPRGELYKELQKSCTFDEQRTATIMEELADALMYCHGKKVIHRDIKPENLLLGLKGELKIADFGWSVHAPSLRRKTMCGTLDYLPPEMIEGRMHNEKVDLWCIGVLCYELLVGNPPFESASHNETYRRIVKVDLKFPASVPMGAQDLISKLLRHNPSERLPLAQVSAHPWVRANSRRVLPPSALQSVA
T1 sequence (Q9NQS7 803-918 partner limits assumed): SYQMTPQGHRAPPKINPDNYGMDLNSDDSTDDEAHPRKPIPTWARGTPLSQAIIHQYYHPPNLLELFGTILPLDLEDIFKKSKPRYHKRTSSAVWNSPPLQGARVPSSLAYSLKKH
The experiment in a line: Aurora B phosphocellulose filter binding kinase activity assay. The format is biochemical. Particulars: 1.5 nM Aurora B/INCENP complex, 10 μM ATP, 50 μM Kemptide, 45 min; read-out: Aur-B IC50. As for the experimental part:
(§7) Kinase activity of Aurora kinases was measured by phosphocellulose filter binding assay. The full-length human Aurora A carrying His6 tag at the N-terminus (Invitrogen, Carlsbad, Calif.) and the full-length human Aurora B (N-terminal GST fusion) co-expressed and co-purified with the His6-INCENP INBOX, aminoacids 803-918 (Carna BioSciences, Japan) were used as the enzyme in the assays. Tested compounds were diluted in DMSO and pre-incubated with the enzyme and ATP/Mg^2+ mixture for at least 10 minutes. The reaction was started by addition of the Kemptide peptide substrate (LRRASLG) and allowed to proceed for 45 min at room temperature. Each reaction in a final volume of 40 μl contained 50 μM Kemptide, 10 μM [γ-^33P]ATP (1 Ci/mmol) and either 11 nM Aurora A or 1.5 nM Aurora B/INCENP complex in the buffer containing 10 mM MgCl2, 5% DMSO, 20 mM MOPS, pH 7.2, 25 mM β-glycerol phosphate, 5 mM EGTA, 1 mM Na3VO4 and either 0.1 mg/ml of BSA and 1 mM DTT for Aurora A or 0.01% Triton-X100 and 2 mM DTT for Aurora B. The reaction was stopped with 25 μl of 5% H3PO4, and 45 μl of the mixture was transferred into a MultiScreen-PH filterplate (Millipore) pre-washed with 0.85% H3PO4. The filterplate was washed 4 times with 200 μl of 0.85% H3PO4 on a vacuum manifold. Scintillation fluid (50 μl of Ultima Gold™ LLT, PerkinElmer, Waltham, Mass.) was added to each well, and after 1-hr incubation at room temperature the plates were counted on MicroBeta (PerkinElmer, Waltham, Mass.) plate reader. […] Percent inhibition values were calculated based on the counts of the positive and negative controls, and these values were regressed against inhibitor concentration and fit into a four parameter model. From this fit the IC50 values (the inhibitor concentration at which 50% inhibition occurs) were derived as the inflection point on the semi-logarithm inhibition curve.

The target in test [2] is T2, full-length human Aurora A (Homo sapiens, UniProt O14965).
T2 construct: The full-length human Aurora A carrying His6 tag at the N-terminus; His6 (N); purchased Invitrogen, Carlsbad, Calif
T2 sequence (O14965 1-403): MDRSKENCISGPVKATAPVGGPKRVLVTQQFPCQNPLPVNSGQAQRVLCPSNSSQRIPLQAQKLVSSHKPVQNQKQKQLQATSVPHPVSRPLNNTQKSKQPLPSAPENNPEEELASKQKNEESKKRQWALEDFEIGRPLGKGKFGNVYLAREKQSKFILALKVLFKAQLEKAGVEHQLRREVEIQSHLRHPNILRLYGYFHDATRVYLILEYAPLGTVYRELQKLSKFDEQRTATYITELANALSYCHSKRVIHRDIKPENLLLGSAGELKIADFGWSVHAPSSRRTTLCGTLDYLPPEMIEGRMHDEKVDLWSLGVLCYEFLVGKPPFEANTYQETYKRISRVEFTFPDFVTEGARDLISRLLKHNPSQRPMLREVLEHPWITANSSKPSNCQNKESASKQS
Nature of the test: Aurora A phosphocellulose filter binding kinase activity assay. It is filed as biochemical. Particulars: 11 nM Aurora A, 10 μM ATP, 50 μM Kemptide, 45 min; read-out: Aur-A IC50. Here is the method: as §7

Where [3] appears, read: MV4-11, Leukemia, 72 hrs, 50% growth inhibition relative to control.
Setting [4] is: COLO 205, Colorectal cancer, 72 hrs, 50% growth inhibition relative to control.
[5] abbreviates: HCT-116, Colorectal cancer, 168 hrs, 50% growth inhibition relative to control.
Setting [6] is: MCF7, Breast Cancer, 240 hrs, 50% growth inhibition relative to control.
[7] abbreviates: HL-60, Leukemia, 72 hrs, 50% growth inhibition relative to control.
The mark [8] stands for this setting: SW-620, Colorectal cancer, 168 hrs, 50% growth inhibition relative to control.

Like-named read-outs stand apart in the source and are kept apart here.

Take `CCN(CCO)CCCOc1ccc2c(Nc3cc(CC(=O)Nc4cccc(F)c4)[nH]n3)ncnc2c1` [AZD1152HQPA, reference compound]: the IC50 in the test on MV-411 (MV4-11, 72 h) is 16.5 nM; in the test with Colo205 (COLO 205, 72 h) it was 23 nM; in the test with HCT116 (HCT-116, 168 h), 14.3 nM; in the test on MCF-7 (MCF7, 240 h), 60.7 nM; in the test on HL-60 (HL-60, 72 h) it was 7.16 nM; with SW620 (SW-620, 168 h), 20.9 nM.
As to `O=C(Cc1cc(Nc2ncnc3cc(-c4ccc(C(=O)N5CCN(CCO)CC5)cc4)ccc23)n[nH]1)Nc1cccc(F)c1` [Compound 1, N-(3-fluorophenyl)-2-(3-(7-(4-(4-(2-hydroxyethyl)piperazine-1-carbonyl)phenyl)quinazolin-4-ylamino)-1H-pyrazol-5-yl)acetamide], the IC50 worked out at 0.48 nM in test [1]; 5.75 nM with MV-411 (setting [3]); 1.82 nM in the test on Colo205 (setting [4]); 1.93 nM in test [2]; 5.32 nM in the test on HCT116 (setting [5]); 16.9 nM with MCF-7 (setting [6]). The figures for the IC50 in the test on HL-60 (setting [7]) and in the test with SW620 (setting [8]) were 1.32 nM and 12 nM, respectively.
With `O=C(Cc1cc(Nc2ncnc3cc(-c4ccc(S(=O)(=O)N5CCCC5)cc4)ccc23)n[nH]1)Nc1cccc(F)c1` [Compound 3, N-(3-fluorophenyl)-2-(3-(7-(4-(pyrrolidin-1-ylsulfonyl)phenyl)quinazolin-4-ylamino)-1H-pyrazol-5-yl)acetamide], the IC50 in test [1] worked out at 0.47 nM; in the test with MV-411 (setting [3]), 5.9 nM; with Colo205 (setting [4]), 2.26 nM; in test [2], 6.04 nM; with HCT116 (setting [5]), 4.58 nM; in the test on MCF-7 (setting [6]), 5.62 nM. In addition, the results for the IC50 in the test on HL-60 (setting [7]) and in the test on SW620 (setting [8]) were 1.08 nM and 2.15 nM, respectively.
For `O=C(Cc1cc(Nc2ncnc3cc(-c4ccc(C(=O)N5CCNCC5)cc4)ccc23)n[nH]1)Nc1cccc(F)c1` [Compound 4, N-(3-fluorophenyl)-2-(3-(7-(4-(piperazine-1-carbonyl)phenyl)quinazolin-4-ylamino)-1H-pyrazol-5-yl)acetamide], the IC50 in test [1] came to 0.71 nM; in the test on MV-411 (setting [3]) it was 6.05 nM; in the test on Colo205 (setting [4]), 2.11 nM; in test [2], 3.77 nM; with HCT116 (setting [5]) it was 5.66 nM; in the test on MCF-7 (setting [6]) it was 7.7 nM. In addition, the IC50 was determined as 1.32 nM in the test on HL-60 (setting [7]) and 7.81 nM with SW620 (setting [8]).
Take `CN1CCN(C(=O)c2ccc(-c3ccc4c(Nc5cc(CC(=O)Nc6cccc(F)c6)[nH]n5)ncnc4c3)cc2)CC1` [Compound 2, N-(3-fluorophenyl)-2-(3-(7-(4-(4-methylpiperazine-1-carbonyl)phenyl)quinazolin-4-ylamino)-1H-pyrazol-5-yl)acetamide]: the IC50 in test [1] is 0.86 nM; in the test on MV-411 (setting [3]), 5.2 nM; with Colo205 (setting [4]), 3.98 nM; in test [2], 5.07 nM; in the test on HCT116 (setting [5]), 3.65 nM; in the test on MCF-7 (setting [6]), 8.46 nM. Further, the IC50 in the test with HL-60 (setting [7]) was determined as 1.8 nM; with SW620 (setting [8]), 6.3 nM.
Turning to `Cc1cc(Nc2cc(N3CCN(C)CC3)nc(Sc3ccc(NC(=O)C4CC4)cc3)n2)n[nH]1` [VX-680, reference compound], the IC50 with MV-411 (MV4-11, 72 h) worked out at 79 nM; in the test on Colo205 (COLO 205, 72 h), 30.2 nM; in the test with HCT116 (HCT-116, 168 h), 18 nM; with MCF-7 (MCF7, 240 h) it was 31 nM; in the test with HL-60 (HL-60, 72 h), 13.8 nM; with SW620 (SW-620, 168 h), 21.8 nM.
As to `O=C(Cc1cc(Nc2ncnc3cc(-c4ccc(S(=O)(=O)N5CC[C@@H](F)C5)cc4)ccc23)n[nH]1)Nc1cccc(F)c1` [Compound 6, (R)-N-(3-fluorophenyl)-2-(3-(7-(4-(3-fluoropyrrolidin-1-ylsulfonyl)phenyl)quinazolin-4-ylamino)-1H-pyrazol-5-yl)acetamide], the IC50 in test [1] came out at 0.63 nM; in the test with MV-411 (setting [3]) it was 5.79 nM; with Colo205 (setting [4]), 3.9 nM; in test [2], 6.29 nM; in the test on HCT116 (setting [5]), 1.9 nM; in the test on MCF-7 (setting [6]), 7.8 nM. Moreover, the IC50 worked out at 2.26 nM with HL-60 (setting [7]) and 2.4 nM with SW620 (setting [8]).
`O=C(Cc1cc(Nc2ncnc3cc(-c4ccc(S(=O)(=O)N5CC[C@H](F)C5)cc4)ccc23)n[nH]1)Nc1cccc(F)c1` [Compound 5, (S)-N-(3-fluorophenyl)-2-(3-(7-(4-(3-fluoropyrrolidin-1-ylsulfonyl)phenyl)quinazolin-4-ylamino)-1H-pyrazol-5-yl)acetamide]: the IC50 in test [1] was 0.56 nM; in the test with MV-411 (setting [3]), 6.4 nM; in the test on Colo205 (setting [4]), 3.86 nM; in test [2], 7.1 nM; in the test with HCT116 (setting [5]), 1.9 nM; in the test with MCF-7 (setting [6]), 11.4 nM. Moreover, the IC50 was found to be 1.21 nM in the test with HL-60 (setting [7]) and 2.17 nM with SW620 (setting [8]).
